Results from US12202805B2, “Process for preparing (5S)-{[2-(4-carboxyphenyl)ethyl] |2-(2-{|3-chloro-4'-(trifluoromethyl)biphenyl-4-yl]methoxy}phenyl)ethyl]aminol-5,6,7,8-tetrahydroquinoline-2-carboxylic acid and its crystalline forms for use as pharmaceutically active compound” (Bayer Aktiengesellschaft, priority 2021, dated 2025).
Values joined by “and” are separate entries in the source; they are usually repeats but may differ in a detail not shown here. Identical values can stand only once.

Tested on: thromboxane A2 challenged PAH-minipig
Assay: Haemodynamics in the anesthetized thromboxane challenged minipig, intratracheal dry powder (PAP, BP)
Type: in vivo, Göttingen Minipigs
Experimental: Healthy Göttingen Minipigs® Ellegaard (Ellegaard, Denmark) of both sexes and having a weight of 2-6 kg were used. The animals were sedated by i.m. administration of about 25 mg/kg ketamine and about 10 mg/kg azaperone. Anaesthesia was initiated by i.v. administration of about 2 mg/kg ketamine and about 0.3 mg/kg midazolam. Maintenance of anaesthesia was by i.v. administration of about 7.5-30 mg/kg/h ketamine and about 1-4 mg/kg/h midazolam (rate of infusion 1-4 ml/kg/h) and about 150 μg/kg/h pancuronium bromide (for example Pancuronium-Actavis). After intubation, the animals were ventilated by the ventilator at a constant respiratory volume (10-12 ml/kg, 35 breaths/min; Avea®, Viasys Healthcare, USA, or Engström Carestation, GE Healthcare, Freiburg, Germany) such that an end-tidal CO2 concentration of about 5% was achieved. Ventilation was performed with room air, enriched with about 40% oxygen (normoxia). For the measurement of the haemodynamic parameters such as pulmonary arterial pressure (PAP), blood pressure (BP) and heart rate (HR), catheters were inserted into the carotid artery to measure the blood pressure, and a Swan-Ganz® catheter was introduced in a flow-directed manner via the jugular vein into the pulmonary artery. The haemodynamic signals were recorded and evaluated by means of pressure transducers (Combitransducer, B. Braun, Melsungen, Germany)/amplifiers and Ponemah® as data acquisition software.
As reference pure Lactose vehicle was applied in the beginning of each experiment.

O.O=C(O)c1ccc(CCN(CCc2ccccc2OCc2ccc(-c3ccc(C(F)(F)F)cc3)cc2Cl)[C@H]2CCCc3nc(C(=O)O)ccc32)cc1.O=C(O)c1ccc(CCN(CCc2ccccc2OCc2ccc(-c3ccc(C(F)(F)F)cc3)cc2Cl)[C@H]2CCCc3nc(C(=O)O)ccc32)cc1 [example 6a, (5S)—{[2-(4-Carboxyphenyl)ethyl][2-(2-{[3-chloro-4′-(trifluoromethyl)biphenyl-4-yl]methoxy}phenyl)-ethyl]amino}-5,6,7,8-tetrahydroquinoline-2-carboxylic acid semihydrate]
systemic blood pressure (375 μg/kg i.t., within the last hour of the observation interval): slightly affected | efficacy with regard to PAP reduction as well as systemic BP reduction (micronized hydrates, 1.5 mg/4 kg (=375 μg/kg) i.t.): comparable efficacy | BP (mean) (time 0 min, 375 μg/kg i.t.): 101 mmHg and 85 mmHg | PAP(mean) (time 0 min, 375 μg/kg i.t.): 39.6 mmHg and 40.8 mmHg and 38.5 mmHg | BP (mean) (time 10 min, 375 μg/kg i.t.): 103 mmHg and 83 mmHg and 79 mmHg | PAP(mean) (time 10 min, 375 μg/kg i.t.): 40.2 mmHg and 41.1 mmHg | BP (mean) (time 20 min, 375 μg/kg i.t.): 101 mmHg and 83 mmHg and 84 mmHg | PAP(mean) (time 20 min, 375 μg/kg i.t.): 40.4 mmHg and 41.3 mmHg | BP (mean) (time 30 min, 375 μg/kg i.t.): 100 mmHg and 81 mmHg and 88 mmHg | PAP(mean) (time 30 min, 375 μg/kg i.t.): 40.2 mmHg and 41.3 mmHg | BP (mean) (time 40 min, 375 μg/kg i.t.): 98 mmHg and 81 mmHg and 90 mmHg | PAP(mean) (time 40 min, 375 μg/kg i.t.): 40.4 mmHg and 41.8 mmHg and 41.0 mmHg | BP (mean) (time 50 min, 375 μg/kg i.t.): 99 mmHg and 78 mmHg and 89 mmHg | PAP(mean) (time 50 min, 375 μg/kg i.t.): 40.7 mmHg and 41.7 mmHg and 40.9 mmHg | BP (mean) (time 60 min, 375 μg/kg i.t.): 100 mmHg and 79 mmHg and 86 mmHg | BP, % changes vs. prevalues (time 60 min, 375 μg/kg i.t.): 100.6% and 99.7% and 97.2% | PAP(mean) (time 60 min, 375 μg/kg i.t.): 41.2 mmHg and 42.0 mmHg and 40.9 mmHg | PAP, % changes vs. prevalues (time 60 min, 375 μg/kg i.t.): 100.7% and 99.4% and 99.2% | BP (mean) (time 70 min, 375 μg/kg i.t.): 102 mmHg and 78 mmHg and 87 mmHg | BP, % changes vs. prevalues (time 70 min, 375 μg/kg i.t.): 102.6% and 98.4% | PAP(mean) (time 70 min, 375 μg/kg i.t.): 38.8 mmHg and 40.6 mmHg and 40.1 mmHg | PAP, % changes vs. prevalues (time 70 min, 375 μg/kg i.t.): 94.7% and 96.1% and 97.0% | BP (mean) (time 80 min, 375 μg/kg i.t.): 102 mmHg and 79 mmHg and 90 mmHg | BP, % changes vs. prevalues (time 80 min, 375 μg/kg i.t.): 102.6% and 99.7% and 101.8% | PAP(mean) (time 80 min, 375 μg/kg i.t.): 34.1 mmHg and 39.9 mmHg and 37.7 mmHg | PAP, % changes vs. prevalues (time 80 min, 375 μg/kg i.t.): 83.4% and 94.5% and 91.2% | BP (mean) (time 90 min, 375 μg/kg i.t.): 101 mmHg and 81 mmHg and 92 mmHg | BP, % changes vs. prevalues (time 90 min, 375 μg/kg i.t.): 101.6% and 102.2% and 104.0% | PAP(mean) (time 90 min, 375 μg/kg i.t.): 30.1 mmHg and 37.7 mmHg and 36.6 mmHg | PAP, % changes vs. prevalues (time 90 min, 375 μg/kg i.t.): 73.4% and 89.2% and 88.7% | BP (mean) (time 100 min, 375 μg/kg i.t.): 100 mmHg and 80 mmHg and 95 mmHg | BP, % changes vs. prevalues (time 100 min, 375 μg/kg i.t.): 100.6% and 101.0% and 107.4% | PAP(mean) (time 100 min, 375 μg/kg i.t.): 28.3 mmHg and 35.9 mmHg and 35.0 mmHg | PAP, % changes vs. prevalues (time 100 min, 375 μg/kg i.t.): 69.0% and 85.0% and 84.7% | BP (mean) (time 110 min, 375 μg/kg i.t.): 99 mmHg and 79 mmHg | BP, % changes vs. prevalues (time 110 min, 375 μg/kg i.t.): 99.6% and 99.7% and 111.9% | PAP(mean) (time 110 min, 375 μg/kg i.t.): 27.2 mmHg and 34.8 mmHg and 34.0 mmHg | PAP, % changes vs. prevalues (time 110 min, 375 μg/kg i.t.): 66.5% and 82.4% and 82.1% | BP (mean) (time 120 min, 375 μg/kg i.t.): 99 mmHg and 79 mmHg and 96 mmHg | BP, % changes vs. prevalues (time 120 min, 375 μg/kg i.t.): 99.6% and 99.7% and 108.6% | PAP(mean) (time 120 min, 375 μg/kg i.t.): 26.4 mmHg and 34.1 mmHg and 32.9 mmHg | PAP, % changes vs. prevalues (time 120 min, 375 μg/kg i.t.): 64.4% and 80.8% and 79.7% | BP (mean) (time 130 min, 375 μg/kg i.t.): 98 mmHg and 81 mmHg and 97 mmHg | BP, % changes vs. prevalues (time 130 min, 375 μg/kg i.t.): 98.6% and 102.2% and 109.7% | PAP(mean) (time 130 min, 375 μg/kg i.t.): 25.7 mmHg and 33.7 mmHg and 31.7 mmHg | PAP, % changes vs. prevalues (time 130 min, 375 μg/kg i.t.): 62.8% and 79.9% and 76.7% | BP (mean) (time 140 min, 375 μg/kg i.t.): 99 mmHg and 82 mmHg and 98 mmHg | BP, % changes vs. prevalues (time 140 min, 375 μg/kg i.t.): 99.6% and 103.5% and 110.8% | PAP(mean) (time 140 min, 375 μg/kg i.t.): 25.3 mmHg and 33.2 mmHg and 31.3 mmHg | PAP, % changes vs. prevalues (time 140 min, 375 μg/kg i.t.): 61.8% and 78.7% and 75.7% | BP (mean) (time 150 min, 375 μg/kg i.t.): 97 mmHg and 82 mmHg | BP, % changes vs. prevalues (time 150 min, 375 μg/kg i.t.): 97.6% and 103.5% and 109.7% | PAP(mean) (time 150 min, 375 μg/kg i.t.): 25.0 mmHg and 32.9 mmHg and 30.7 mmHg | PAP, % changes vs. prevalues (time 150 min, 375 μg/kg i.t.): 60.9% and 78.0% and 74.3% | BP (mean) (time 160 min, 375 μg/kg i.t.): 96 mmHg and 81 mmHg and 97 mmHg | BP, % changes vs. prevalues (time 160 min, 375 μg/kg i.t.): 96.6% and 102.2% and 109.7% | PAP(mean) (time 160 min, 375 μg/kg i.t.): 24.5 mmHg and 32.5 mmHg and 30.2 mmHg
